Structures can show the parent of a compound that is named as a salt.
Assays:
Type in all cases: in vivo
[1] = tested on: yellow nutsedge; assay: Herbicide effect, foliar spray on yellow nutsedge grown in pots (Test Example 1); parameters: key: a level was taken “0” when completely or almost no difference was observed between the growth behavior of a test weed at the time of observation and that of untreated weed; a level was taken “10” when a test weed completely died or the growth of that was completely inhibited; details: 5 days after treatment, levels 0-10
Protocol: (§1) Evaluation of phytotoxicity against a crop was shown by “no” when almost no phytotoxicity was observed, “low” when a low level phytotoxicity was observed, “medium” when a medium level phytotoxicity was observed and “high” when a high level phytotoxicity was observed.
(§2) A plastic pot of 11 cm in diameter and 8 cm in depth was filled with field soil. A tuber of yellow nutsedge was buried and grown in a greenhouse for 28 days.
(§3) An emulsion of Compound A-1 was prepared by sufficiently mixing 5 parts of Compound A-1, 6 parts of Sorpol 3005X (surfactant, produced by Toho Chemical) and 89 parts of xylene.
(§4) Each of • (a) single use of an emulsion of Compound A-1, • (b) single use of a solution of Glyphosate isopropylamine salt (commercial name: Roundup, produced by Nippon Monsanto, containing 41% of Glyphosate isopropylamine salt), • (c) single use of a solution of Gltfosinate-Ammonium (commercial name: Basta, produced by Hoechst Schering AgrEvo GmbH, containing 18.5% of Glufosinate-Ammonium), • (d) a mixed composition of an emulsion of Compound A-1 and a solution of Glyphosate isopropylamine salt, and • (e) a mixed composition of an emulsion of Compound A-1 and a solution of Glufosinate-Ammonium were diluted with water containing 1% Agri-dex (produced by Helena). Respective dilutions were uniformly sprayed from upper side onto foliages of yellow nutsedge grown as described above with a small sprayer such that the amounts of the active ingredients were the amounts shown in Table 4. Immediately after the treatment with the test compounds, seeds of corn, soybean and cotton were sown.
(§5) After the treatment, they were raised in a greenhouse for 5 days and the effect against weeds was evaluated. In addition, after 14 days of the treatment, the phytotoxicity to corn, soybean and cotton was evaluated.

[2] = tested on: corn; assay: Phytotoxicity to corn sown immediately after treatment (Test Example 1); parameters: key: “no” when almost no phytotoxicity was observed; “low” when a low level phytotoxicity was observed; “medium” when a medium level phytotoxicity was observed; “high” when a high level phytotoxicity was observed; details: 14 days after treatment
Protocol: as §1, §2, §3, §4, §5

[3] = tested on: soybean; assay: Phytotoxicity to soybean sown immediately after treatment (Test Example 1); parameters: key: “no” when almost no phytotoxicity was observed; “low” when a low level phytotoxicity was observed; “medium” when a medium level phytotoxicity was observed; “high” when a high level phytotoxicity was observed; details: 14 days after treatment
Protocol: as §1, §2, §3, §4, §5

[4] = tested on: cotton; assay: Phytotoxicity to cotton sown immediately after treatment (Test Example 1); parameters: key: “no” when almost no phytotoxicity was observed; “low” when a low level phytotoxicity was observed; “medium” when a medium level phytotoxicity was observed; “high” when a high level phytotoxicity was observed; details: 14 days after treatment
Protocol: as §1, §2, §3, §4, §5

| Structure (SMILES) | Herbicide Effect ([1]; 100 g/ha) | Herbicide Effect ([1]; 500 g/ha) | Phytotoxicity Cr ([2]; 100 g/ha) | Phytotoxicity Cr ([2]; 500 g/ha) | Phytotoxicity Be ([3]; 100 g/ha) | Phytotoxicity Be ([3]; 500 g/ha) | Phytotoxicity Ct ([4]; 100 g/ha) | Phytotoxicity Ct ([4]; 500 g/ha) | Herbicide Effect ([1]; 200 g/ha) | Herbicide Effect ([1]; 1000 g/ha) | Phytotoxicity Cr ([2]; 200 g/ha) | Phytotoxicity Cr ([2]; 1000 g/ha) | Phytotoxicity Be ([3]; 200 g/ha) | Phytotoxicity Be ([3]; 1000 g/ha) | Phytotoxicity Ct ([4]; 200 g/ha) | Phytotoxicity Ct ([4]; 1000 g/ha) |
| --- | --- | --- | --- | --- | --- | --- | --- | --- | --- | --- | --- | --- | --- | --- | --- | --- |
| CP(=O)(O)CCC(N)C(=O)O.N (racemic) [Glufosinate-Ammonium, ammonium DL-homoalanin-4-yl(methyl)phosphinate] | 0 | 2 | no | no | no | no | no | no | – | – | – | – | – | – | – | – |
| O=C(O)CNCP(=O)(O)O [Glyphosate Isopropylamine Salt, N-(phosphonomethyl)glycine] | – | – | – | – | – | – | – | – | 0 | 0 | no | no | no | no | no | no |

From patent publication US7732602B2, “Herbicide composition” (Sumitomo Chemical Company, Limited, priority 2001, dated 2010)
